Results reported in PubChem BioAssay AID1919014 (Molecular Pharmacology Branch, DTP, NCI, 2023).

Test system: NCI-H1341 complex spheroids, percent test/control
Experiment: Anticancer human tumor NCI-H1341 cell line growth inhibition [AhR];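 note: spheroids exposed to agents for seven days before readout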
Settings: for IC50: curve of first compound; for viability, T/C: stronger effect = lower value
In short: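 Complex tumor spheroids co-cultured with HUVEC and human MSC stroma; AhR antagonists tested in combination with standard-of-care and investigational agents. Top concentration at or near clinical Cmax (else 10 microM), half-log dilutions; growth expressed as percent test/control.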

[1] = second compound 0.1 µM, first compound 0.0316 µM
[2] = second compound 0.1 µM, first compound 0.1 µM
[3] = second compound 0.1 µM, first compound 0.316 µM
[4] = second compound 0.1 µM, first compound 1 µM
[5] = second compound 0.1 µM, first compound 3.16 µM
[6] = second compound 0.1 µM, first compound 10 µM
[7] = second compound 0.316 µM, first compound 0.0316 µM
[8] = second compound 0.316 µM, first compound 0.1 µM
[9] = second compound 0.316 µM, first compound 0.316 µM
[10] = second compound 0.316 µM, first compound 1 µM
[11] = second compound 0.316 µM, first compound 3.16 µM
[12] = second compound 0.316 µM, first compound 10 µM
[13] = second compound 1 µM, first compound 0.0316 µM
[14] = second compound 1 µM, first compound 0.1 µM
[15] = second compound 1 µM, first compound 0.316 µM
[16] = second compound 1 µM, first compound 1 µM
[17] = second compound 1 µM, first compound 3.16 µM
[18] = second compound 1 µM, first compound 10 µM
[19] = second compound 3.16 µM, first compound 0.0316 µM
[20] = second compound 3.16 µM, first compound 0.1 µM
[21] = second compound 3.16 µM, first compound 0.316 µM
[22] = second compound 3.16 µM, first compound 1 µM
[23] = second compound 3.16 µM, first compound 3.16 µM
[24] = second compound 3.16 µM, first compound 10 µM
[25] = second compound 10 µM, first compound 0.0316 µM
[26] = second compound 10 µM, first compound 0.1 µM
[27] = second compound 10 µM, first compound 0.316 µM
[28] = second compound 10 µM, first compound 1 µM
[29] = second compound 10 µM, first compound 3.16 µM
[30] = second compound 10 µM, first compound 10 µM

Compound CC1COCCN1c1cc(C2(S(C)(=N)=O)CC2)nc(-c2ccnc3[nH]ccc23)n1 (stereo not given) + CC(CO)NC(=O)c1cc(-c2ccc(Cl)cc2)nn(-c2cnn(C)c2)c1=O has an IC50 (second compound 0.1 µM) of 1600 nM, an IC50 (second compound 0.316 µM) of 1090 nM and an IC50 (second compound 1 µM) of 1540 nM. The IC50 (second compound 3.16 µM) was 1490 nM, the IC50 (second compound 10 µM) was 956 nM and the viability, T/C [1] was 89.6%. For the same compound, the viability, T/C [2] was 83.2%, the viability, T/C [3] was 96.7% and the viability, T/C [4] was 64.9%. It also gave a viability, T/C [5] of 29.7%, a viability, T/C [6] of 21.9% and a viability, T/C [7] of 78.8%. The viability, T/C [8] was 93.5%, the viability, T/C [9] was 70.1% and the viability, T/C [10] was 51.1%. For the same compound, the viability, T/C [11] was 32.4%, the viability, T/C [12] was 20.4% and the viability, T/C [13] was 77.3%. It also gave a viability, T/C [14] of 88.5%, a viability, T/C [15] of 88.4% and a viability, T/C [16] of 57.1%. For the same compound, the viability, T/C [17] was 35.5%, the viability, T/C [18] was 19.6% and the viability, T/C [19] was 95.8%. For the same compound, the viability, T/C [20] was 86.3%, the viability, T/C [21] was 87.8% and the viability, T/C [22] was 58.6%. For the same compound, the viability, T/C [23] was 31.7%, the viability, T/C [24] was 17.6% and the viability, T/C [25] was 83.2%. For the same compound, the viability, T/C [26] was 84.9%, the viability, T/C [27] was 67.9% and the viability, T/C [28] was 52.1%. The viability, T/C [29] was 24.8% and the viability, T/C [30] was 18.8%.
With CC[C@@]1(O)C(=O)OCc2c1cc1n(c2=O)Cc2cc3c(CN(C)C)c(O)ccc3nc2-1 + Cc1cncc(-c2nc(NCCc3c[nH]c4ccccc34)c3ncn(C(C)C)c3n2)c1 the IC50 (second compound 0.1 µM) was 23.6 nM, the IC50 (second compound 0.316 µM) was 21.4 nM and the IC50 (second compound 1 µM) was 18.7 nM. For the same compound, the IC50 (second compound 3.16 µM) was 7.91 nM, the IC50 (second compound 10 µM) was less than 0.316 nM and the viability, T/C (second compound 0.1 µM, first compound 0.000316 µM) was 90.4%. It also gave a viability, T/C (second compound 0.1 µM, first compound 0.001 µM) of 81.1%, a viability, T/C (second compound 0.1 µM, first compound 0.00316 µM) of 69.8% and a viability, T/C (second compound 0.1 µM, first compound 0.01 µM) of 64%. It also gave a viability, T/C [1] of 42.5%, a viability, T/C [2] of 38.4% and a viability, T/C (second compound 0.316 µM, first compound 0.000316 µM) of 67.3%. For the same compound, the viability, T/C (second compound 0.316 µM, first compound 0.001 µM) was 76.8%, the viability, T/C (second compound 0.316 µM, first compound 0.00316 µM) was 75.5% and the viability, T/C (second compound 0.316 µM, first compound 0.01 µM) was 63.2%. For the same compound, the viability, T/C [7] was 43.5%, the viability, T/C [8] was 38.2% and the viability, T/C (second compound 1 µM, first compound 0.000316 µM) was 68.8%. For the same compound, the viability, T/C (second compound 1 µM, first compound 0.001 µM) was 76.1%, the viability, T/C (second compound 1 µM, first compound 0.00316 µM) was 77.2% and the viability, T/C (second compound 1 µM, first compound 0.01 µM) was 60.8%. The viability, T/C [13] was 40.9%, the viability, T/C [14] was 32.2% and the viability, T/C (second compound 3.16 µM, first compound 0.000316 µM) was 72.9%. The viability, T/C (second compound 3.16 µM, first compound 0.001 µM) was 74.8%, the viability, T/C (second compound 3.16 µM, first compound 0.00316 µM) was 66.6% and the viability, T/C (second compound 3.16 µM, first compound 0.01 µM) was 45.7%. The viability, T/C [19] was 37.1%, the viability, T/C [20] was 35.5% and the viability, T/C (second compound 10 µM, first compound 0.000316 µM) was 25.8%. It also gave a viability, T/C (second compound 10 µM, first compound 0.001 µM) of 24.8%, a viability, T/C (second compound 10 µM, first compound 0.00316 µM) of 24.9% and a viability, T/C (second compound 10 µM, first compound 0.01 µM) of 18%. For the same compound, the viability, T/C [25] was 19.2% and the viability, T/C [26] was 15.1%.
Compound COc1cccc2c1C(=O)c1c(O)c3c(c(O)c1C2=O)CC(O)(C(=O)CO)CC3OC1CC(N)C(O)C(C)O1 (stereo not given) + CC(CO)NC(=O)c1cc(-c2ccc(Cl)cc2)nn(-c2cnn(C)c2)c1=O has an IC50 (second compound 0.1 µM) of 108 nM, an IC50 (second compound 0.316 µM) of less than 31.6 nM and an IC50 (second compound 1 µM) of 103 nM. The IC50 (second compound 3.16 µM) was less than 31.6 nM, the IC50 (second compound 10 µM) was less than 31.6 nM and the viability, T/C [1] was 51%. The viability, T/C [2] was 53%, the viability, T/C [3] was 32.4% and the viability, T/C [4] was 6.25%. It also gave a viability, T/C [5] of 0.83%, a viability, T/C [6] of 2.75% and a viability, T/C [7] of 51.3%. The viability, T/C [8] was 40.9%, the viability, T/C [9] was 28.4% and the viability, T/C [10] was 6.42%. The viability, T/C [11] was 0.79%, the viability, T/C [12] was 2.4% and the viability, T/C [13] was 48.4%. For the same compound, the viability, T/C [14] was 53.3%, the viability, T/C [15] was 30.2% and the viability, T/C [16] was 4.94%. It also gave a viability, T/C [17] of 1.46%, a viability, T/C [18] of 2.75% and a viability, T/C [19] of 43.9%. The viability, T/C [20] was 53.7%, the viability, T/C [21] was 26.7% and the viability, T/C [22] was 3.92%. It also gave a viability, T/C [23] of 3.09%, a viability, T/C [24] of 2.61% and a viability, T/C [25] of 41.6%. It also gave a viability, T/C [26] of 36.8%, a viability, T/C [27] of 15.2% and a viability, T/C [28] of 0.93%. It also gave a viability, T/C [29] of 2.19% and a viability, T/C [30] of 2.31%.
COc1cc(C2c3cc4c(cc3C(OC3OC5COC(C)OC5C(O)C3O)C3COC(=O)C23)OCO4)cc(OC)c1O (stereo not given) + Cc1ccccc1N=Nc1ccc(NC(=O)c2ccnn2C)c(C)c1 gave an IC50 (second compound 0.1 µM) of 834 nM, an IC50 (second compound 0.316 µM) of 10000 nM and an IC50 (second compound 1 µM) of 725 nM. It also gave an IC50 (second compound 3.16 µM) of 255 nM, an IC50 (second compound 10 µM) of less than 31.6 nM and a viability, T/C [1] of 92.2%. For the same compound, the viability, T/C [2] was 82.4%, the viability, T/C [3] was 56% and the viability, T/C [4] was 46%. It also gave a viability, T/C [5] of 46.3%, a viability, T/C [6] of 53.4% and a viability, T/C [7] of 71.3%. For the same compound, the viability, T/C [8] was 79%, the viability, T/C [9] was 57.1% and the viability, T/C [10] was 50.4%. For the same compound, the viability, T/C [11] was 54.6%, the viability, T/C [12] was 48.9% and the viability, T/C [13] was 90.1%. It also gave a viability, T/C [14] of 88.5%, a viability, T/C [15] of 58.2% and a viability, T/C [16] of 50.2%. It also gave a viability, T/C [17] of 44.7%, a viability, T/C [18] of 44.5% and a viability, T/C [19] of 66.6%. It also gave a viability, T/C [20] of 68.4%, a viability, T/C [21] of 43.3% and a viability, T/C [22] of 43.5%. The viability, T/C [23] was 46.9%, the viability, T/C [24] was 50.2% and the viability, T/C [25] was 45.2%. The viability, T/C [26] was 46.6%, the viability, T/C [27] was 57.1% and the viability, T/C [28] was 44.6%. It also gave a viability, T/C [29] of 40.1% and a viability, T/C [30] of 49.9%.
